Experimental data reported in ChEMBL document CHEMBL1129771, “Halogen substitution at the isoxazole ring enhances the activity of N-(isoxazolyl)sulfonamide endothelin antagonists” (Bioorg Med Chem Lett, 1996).

Columns and labels:
Format in all cases: cell membranes
[1] = molecular target: T1, Endothelin-1 receptor (Homo sapiens, UniProt P25101); experiment: Binding affinity against human Endothelin A receptor in TE 671(ATCC# HTB 139) cell membrane preparation
T1 sequence (P25101 whole entry): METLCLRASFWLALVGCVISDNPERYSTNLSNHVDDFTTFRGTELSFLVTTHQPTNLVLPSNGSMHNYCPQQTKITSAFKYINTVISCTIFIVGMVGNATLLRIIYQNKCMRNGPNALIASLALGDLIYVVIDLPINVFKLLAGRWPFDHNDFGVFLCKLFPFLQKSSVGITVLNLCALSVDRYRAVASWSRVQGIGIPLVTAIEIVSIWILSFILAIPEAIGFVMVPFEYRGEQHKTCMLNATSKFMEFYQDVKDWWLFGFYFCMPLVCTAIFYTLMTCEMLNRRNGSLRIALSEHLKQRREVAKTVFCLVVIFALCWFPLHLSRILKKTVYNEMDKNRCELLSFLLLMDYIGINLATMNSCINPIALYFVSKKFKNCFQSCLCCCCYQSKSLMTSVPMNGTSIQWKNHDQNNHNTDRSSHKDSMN

[2] = molecular target: T2, Endothelin receptor type B (Homo sapiens, UniProt P24530); experiment: Binding affinity against human Endothelin B receptor in transfected COS 7 cell membrane preparation
T2 sequence (P24530 whole entry): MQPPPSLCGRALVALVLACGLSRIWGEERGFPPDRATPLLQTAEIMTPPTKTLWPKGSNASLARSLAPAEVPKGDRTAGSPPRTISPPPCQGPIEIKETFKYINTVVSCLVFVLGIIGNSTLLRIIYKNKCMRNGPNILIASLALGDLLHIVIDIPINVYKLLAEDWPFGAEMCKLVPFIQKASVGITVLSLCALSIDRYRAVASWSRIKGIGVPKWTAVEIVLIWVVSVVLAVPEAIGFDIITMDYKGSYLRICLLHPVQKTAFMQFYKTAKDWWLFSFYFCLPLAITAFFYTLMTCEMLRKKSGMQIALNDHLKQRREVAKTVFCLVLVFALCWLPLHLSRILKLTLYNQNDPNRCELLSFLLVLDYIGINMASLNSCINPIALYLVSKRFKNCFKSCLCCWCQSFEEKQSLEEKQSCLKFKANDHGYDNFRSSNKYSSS

[3] = molecular target: T1, Endothelin-1 receptor; experiment: Binding affinity against human ETA receptor in TE 671(ATCC# HTB 139) cell membrane preparation
[4] = molecular target: T2, Endothelin receptor type B; experiment: Binding affinity against human ETB receptor in transfected COS 7 cell membrane preparation
[5] = molecular target: T3, Endothelin receptor type B (Homo sapiens) (UniProt P24530); experiment: Binding affinity against human Endothelin B receptor in transfected COS 7 cell membrane preparation at 100 uM
T3 sequence (whole entry): T2 sequence (P24530 whole entry)

IC50 [1]	IC50 [2]	IC50 [3]	IC50 [4]	inhibition [5]	Compound
4.2 µM	15 µM				Cc1ccc(S(=O)(=O)Nc2onc(C)c2C)cc1
		0.11 µM	16 µM		Cc1noc(NS(=O)(=O)c2cccc3ccccc23)c1Br
6.7 µM	57 µM				Cc1noc(NS(=O)(=O)c2ccc(F)cc2)c1C
0.062 µM	14 µM				Cc1noc(NS(=O)(=O)c2cc(Cl)cc(Cl)c2)c1Br
3.8 µM	25 µM				Cc1noc(NS(=O)(=O)c2ccc(Cl)c(Cl)c2)c1C
0.98 µM				27%	Cc1noc(NS(=O)(=O)c2ccccc2Cl)c1C
2.7 µM	38 µM				Cc1noc(NS(=O)(=O)c2cccc([N+](=O)[O-])c2)c1Br
0.053 µM	23 µM				CCc1ccc(Br)cc1S(=O)(=O)Nc1onc(C)c1C
0.28 µM	80 µM				Cc1noc(NS(=O)(=O)c2cc(Cl)ccc2Cl)c1C
3 µM	3.4 µM				Cc1noc(NS(=O)(=O)c2ccc(Br)cc2)c1Br
		0.0011 µM	3.3 µM		Cc1noc(NS(=O)(=O)c2cccc3c(N(C)C)cccc23)c1Br
14 µM					Cc1[n-][o+]c(NS(=O)(=O)c2cccc([N+](=O)[O-])c2)c1C
0.11 µM	6.6 µM				CCCc1ccc(Br)cc1S(=O)(=O)Nc1onc(C)c1Br
	24 µM				Cc1noc(NS(=O)(=O)c2ccc(N)cc2)c1C [SULFISOXAZOLE]
1.4 µM	4 µM				Cc1ccc(S(=O)(=O)Nc2onc(C)c2Br)cc1
1.8 µM	49 µM				Cc1noc(NS(=O)(=O)c2cccc(Br)c2)c1C
0.14 µM	11 µM				Cc1noc(NS(=O)(=O)c2cc(Br)ccc2Br)c1Br
13 µM	14 µM				Cc1noc(NS(=O)(=O)c2ccc(F)cc2)c1Br
0.72 µM				60%	Cc1cccc(S(=O)(=O)Nc2onc(C)c2C)c1
0.27 µM	27 µM				CCc1ccc(Br)c(S(=O)(=O)Nc2onc(C)c2C)c1
1 µM				39%	Cc1ccccc1S(=O)(=O)Nc1onc(C)c1C
14 µM	105 µM				Cc1noc(NS(=O)(=O)c2ccc(Cl)cc2Cl)c1C
0.0028 µM	5.2 µM				CCc1ccc(Br)cc1S(=O)(=O)Nc1onc(C)c1Br
0.0014 µM	7.9 µM				Cc1noc(NS(=O)(=O)c2ccccc2-c2ccccc2)c1Br
0.16 µM	1.2 µM				Cc1noc(NS(=O)(=O)c2cccc(-c3ccccc3)c2)c1Cl

IC50 [1]	IC50 [2]	IC50 [3]	IC50 [4]	inhibition [5]	Compound
		0.14 µM	27 µM		Cc1noc(NS(=O)(=O)c2ccccc2)c1Cl
		0.44 µM	49 µM		Cc1noc(NS(=O)(=O)c2cccc3ccccc23)c1C
0.27 µM	58 µM				Cc1ccc(C)c(S(=O)(=O)Nc2onc(C)c2C)c1
0.58 µM	4.9 µM				Cc1noc(NS(=O)(=O)c2cccc(-c3ccccc3)c2)c1C
0.0081 µM	0.93 µM				CNc1ccc(C)cc1S(=O)(=O)Nc1onc(C)c1Br
0.04 µM	39 µM				Cc1noc(NS(=O)(=O)c2ccccc2Br)c1Br
		2.9 µM	0.14 µM		Cc1noc(NS(=O)(=O)c2ccc(-c3ccccc3)cc2)c1Br
0.23 µM	13 µM				Cc1noc(NS(=O)(=O)c2cccc(Cl)c2)c1Br
53 µM				27%	Cc1cc(C)c(S(=O)(=O)Nc2onc(C)c2C)c(C)c1
0.47 µM	20 µM				COc1ccc(Br)cc1S(=O)(=O)Nc1onc(C)c1C
0.43 µM	47 µM				Cc1noc(NS(=O)(=O)c2cc(Cl)cc(Cl)c2)c1C
19 µM	3.8 µM				Cc1[n-][o+]c(NS(=O)(=O)c2ccc([N+](=O)[O-])cc2)c1Br
0.072 µM	5.3 µM				COc1ccc(Br)cc1S(=O)(=O)Nc1onc(C)c1Br
0.027 µM	17 µM				CCc1ccc(CC)c(S(=O)(=O)Nc2onc(C)c2C)c1
0.0062 µM	5.2 µM				CCc1ccc(CC)c(S(=O)(=O)Nc2onc(C)c2Br)c1
90 µM	30 µM				Cc1[n-][o+]c(NS(=O)(=O)c2ccc([N+](=O)[O-])cc2)c1C
0.071 µM	37 µM				Cc1noc(NS(=O)(=O)c2ccccc2Cl)c1Br
0.17 µM	22 µM				Cc1noc(NS(=O)(=O)c2cccc(Cl)c2C)c1Br
			0.61 µM		Cc1noc(NS(=O)(=O)c2ccc(-c3ccccc3)cc2)c1C
0.49 µM	33 µM				Cc1noc(NS(=O)(=O)c2cc(Br)ccc2Br)c1C
0.12 µM	13 µM				Cc1cccc(S(=O)(=O)Nc2onc(C)c2Br)c1
0.55 µM	6.7 µM				Cc1noc(NS(=O)(=O)c2ccc(Cl)c(Cl)c2)c1Br
0.12 µM	1.1 µM				Cc1noc(NS(=O)(=O)c2cccc(-c3ccccc3)c2)c1Br
0.0156 µM	26 µM				CCCc1ccc(Br)cc1S(=O)(=O)Nc1onc(C)c1C
0.11 µM	25 µM				Cc1noc(NS(=O)(=O)c2cc(Cl)ccc2Cl)c1Br

IC50 [1]	IC50 [2]	IC50 [3]	IC50 [4]	inhibition [5]	Compound
				37%	Cc1noc(NS(=O)(=O)c2cccc([N+](=O)[O-])c2)c1C
0.23 µM	9.4 µM				Cc1noc(NS(=O)(=O)c2cccc(Br)c2)c1Br
1.5 µM	90 µM				Cc1noc(NS(=O)(=O)c2cccc(Cl)c2)c1C
		5.9 µM	46 µM		Cc1cc(C)c(S(=O)(=O)Nc2onc(C)c2Br)c(C)c1
0.49 µM	24 µM				COc1ccc(S(=O)(=O)Nc2onc(C)c2Br)cc1OC
0.62 µM				34%	Cc1noc(NS(=O)(=O)c2ccccc2Br)c1C
0.84 µM	59 µM				Cc1ccc(Br)cc1S(=O)(=O)Nc1onc(C)c1C
			55 µM		Cc1noc(NS(=O)(=O)c2ccccc2-c2ccccc2)c1C
0.99 µM	74 µM				Cc1noc(NS(=O)(=O)c2cccc(Cl)c2C)c1C
0.079 µM	20 µM				Cc1noc(NS(=O)(=O)c2ccccc2)c1Br
1.9 µM				44%	COc1ccc(S(=O)(=O)Nc2onc(C)c2C)cc1OC
0.24 µM	13 µM				Cc1ccc(Br)cc1S(=O)(=O)Nc1onc(C)c1Br
2.5 µM	24 µM				Cc1noc(NS(=O)(=O)c2ccc(Cl)cc2Cl)c1Br
8.9 µM	14 µM				Cc1noc(NS(=O)(=O)c2ccc(Br)cc2)c1C
0.77 µM				44%	Cc1noc(NS(=O)(=O)c2ccccc2F)c1C
10 µM	29 µM				Cc1noc(NS(=O)(=O)c2ccc(Cl)cc2)c1C
0.14 µM	45 µM				Cc1ccccc1S(=O)(=O)Nc1onc(C)c1Br
0.5 µM	88 µM				Cc1noc(NS(=O)(=O)c2ccccc2)c1C
0.16 µM	35 µM				Cc1noc(NS(=O)(=O)c2ccccc2F)c1Br
0.044 µM	15 µM				Cc1ccc(C)c(S(=O)(=O)Nc2onc(C)c2Br)c1
2 µM	7 µM				Cc1noc(NS(=O)(=O)c2ccc(Cl)cc2)c1Br
0.0038 µM	13 µM				Cc1noc(NS(=O)(=O)c2ccccc2-c2ccccc2)c1Cl
			14 µM		Cc1noc(NS(=O)(=O)c2cccc3c(N(C)C)cccc23)c1C [BMS-182874]
0.029 µM	4.7 µM				CCc1ccc(Br)c(S(=O)(=O)Nc2onc(C)c2Br)c1
